Source: US20140113904A1, “TREATMENT OF CANCER WITH TOR KINASE INHIBITORS” (SIGNAL PHARMACEUTICALS, LLC, priority 2012, published 2014)
Read-outs that look alike come from different tables or passages of the source.

Key:
PC3 cell line = test: WST-1 cell proliferation assay (Compound 2); format: cell-based; conditions: Homo sapiens
Protocol: All growth inhibition experiments were repeated on different occasions at least twice. Potency was determined by calculating the IC50 value using the data describing the growth inhibition curve. A reference compound was included in each plate assay to monitor inter-assay variation and the IC50 value for the reference compound was used as part of the acceptance criteria for the assay. […] Next, compound was added to the designated well at a dilution of 1:10 (i.e., 20 μL of the diluted compound was added to 180 μL of culture media in each well). The final dilution of compound was 1:500, which yielded a final DMSO concentration of 0.2% in each well. All concentrations were performed in triplicate. Additionally, each plate tested contained cells treated with a reference compound in order to evaluate interassay variation and the IC50 value generated was used as criteria in accepting the test data. […] Cell proliferation was assessed using the WST-1 assay, which is based on measurement of metabolic activity via the reduction of tetrazolium salts to formazan salts. […] Absorbance was measured at 450 nm on the VICTOR™ X2 multilabel plate reader (PerkinElmer). […] The software (XLfit from IDBS) calculated the percentage inhibition at each concentration of compound by normalizing to the DMSO control values. […] Percentage inhibition curves were plotted and IC50 values calculated.

[1] = Compound 2 concentrations in plasma by LC-MS/MS; format: in vivo, SCID mice; conditions: for concentration at 0.5 h / concentration at 1 h / concentration at 3 h / concentration at 6 h / concentration at 10 h / concentration at 24 h / AUC(0-t): female, SCID, mouse, plasma; for concentration at 0.5 h / concentration at 1 h / concentration at 3 h / concentration at 6 h / concentration at 10 h / concentration at 24 h: oral; for AUC(0-t): po
pS6RP = pS6RP in PC3 tumors, MSD (Compound 2); format: in vivo, SCID mice; conditions: Mus musculus; for inhibition at 0.1 mg/kg: 0.1 mg/kg single oral dose; for inhibition at 0.3 mg/kg: 0.3 mg/kg single oral dose
[2] = 0.5 h, read-out: PD Marker Inhibition (%) pS6RP
[3] = 1 h, read-out: PD Marker Inhibition (%) pS6RP
[4] = 3 h, read-out: PD Marker Inhibition (%) pS6RP
[5] = 6 h, read-out: PD Marker Inhibition (%) pS6RP
[6] = 10 h, read-out: PD Marker Inhibition (%) pS6RP
[7] = 24 h, read-out: PD Marker Inhibition (%) pS6RP

In the case of `CCN1C(=O)CNc2ncc(-c3ccc(-c4nc[nH]n4)nc3C)nc21` [Compound 2, 1-ethyl-7-(2-methyl-6-(1H-1,2,4-triazol-3-yl)pyridin-3-yl)-3,4-dihydropyrazino[2,3-b]pyrazin-2(1H)-one], the IC50 (PC3 cell line; PC-3, 72 h, PC3 cell line, 3 days, average, read-out: growth inhibition IC50) is reported as 140 nM, the IC50 (PC3 cell line; PC-3, prostate tumor cells, read-out: growth inhibition IC50 values) is reported as 140 to 1310 nM and the “Plasma Compound 2 Concentration (μM) Mean ± SEM” value ([1]; 0.1 mg/kg single oral dose, 24 h) is reported as “BLQ”. The “Plasma Concentration (μM) Mean ± SEM” value ([1]; 2 mg/kg QD, 10 h after last dose) was 0.21 ± 0.05 µM, the concentration at 0.5 h ([1]; 0.1 mg/kg, Plasma Compound 2 Concentration (μM) Mean ± SEM, 0.1 mg/kg single oral dose) was 0.05 µM and the concentration at 1 h ([1]; 0.1 mg/kg, Plasma Compound 2 Concentration (μM) Mean ± SEM, 0.1 mg/kg single oral dose, 1 h) was 0.04 µM. For the same compound, the concentration at 3 h ([1]; 0.1 mg/kg, Plasma Compound 2 Concentration (μM) Mean ± SEM, 0.1 mg/kg single oral dose, 3 h) was 0.02 µM, the concentration at 6 h ([1]; 0.1 mg/kg, Plasma Compound 2 Concentration (μM) Mean ± SEM, 0.1 mg/kg single oral dose, 6 h) was 0.02 µM and the concentration at 10 h ([1]; 0.1 mg/kg, Plasma Compound 2 Concentration (μM) Mean ± SEM, 0.1 mg/kg single oral dose, 10 h) was 0.01 µM. For the same compound, the concentration at 0.5 h ([1]; 0.3 mg/kg, Plasma Compound 2 Concentration (μM) Mean ± SEM, 0.3 mg/kg single oral dose) was 0.16 ± 0.03 µM, the concentration at 1 h ([1]; 0.3 mg/kg, Plasma Compound 2 Concentration (μM) Mean ± SEM, 0.3 mg/kg single oral dose, 1 h) was 0.16 ± 0.01 µM and the concentration at 3 h ([1]; 0.3 mg/kg, Plasma Compound 2 Concentration (μM) Mean ± SEM, 0.3 mg/kg single oral dose, 3 h) was 0.07 ± 0.01 µM. It also gave a concentration at 6 h ([1]; 0.3 mg/kg, Plasma Compound 2 Concentration (μM) Mean ± SEM, 0.3 mg/kg single oral dose, 6 h) of 0.07 ± 0.01 µM, a concentration at 10 h ([1]; 0.3 mg/kg, Plasma Compound 2 Concentration (μM) Mean ± SEM, 0.3 mg/kg single oral dose, 10 h) of 0.04 ± 0.01 µM and a concentration at 24 h ([1]; 0.3 mg/kg, Plasma Compound 2 Concentration (μM) Mean ± SEM, 0.3 mg/kg single oral dose, 24 h) of 0 µM. It also gave a concentration at 1 h ([1]; 1 mg/kg, 1 mg/kg BID, 1 h after last dose, read-out: Plasma Concentration (μM) Mean ± SEM) of 0.73 ± 0.14 µM, a concentration at 3 h ([1]; 1 mg/kg, 1 mg/kg BID, 3 h after last dose, read-out: Plasma Concentration (μM) Mean ± SEM) of 0.48 ± 0.04 µM and a concentration at 6 h ([1]; 1 mg/kg, 1 mg/kg BID, 6 h after last dose, read-out: Plasma Concentration (μM) Mean ± SEM) of 0.22 ± 0.04 µM. The concentration at 10 h ([1]; 1 mg/kg, 1 mg/kg BID, 10 h after last dose, read-out: Plasma Concentration (μM) Mean ± SEM) was 0.11 ± 0.01 µM, the concentration at 24 h ([1]; 1 mg/kg, 1 mg/kg BID, 24 h after last dose, read-out: Plasma Concentration (μM) Mean ± SEM) was 0.02 µM and the concentration at 10 h ([1]; 1 mg/kg, 1 mg/kg single dose, read-out: plasma concentration at which pS6RP and pAKT (S473) were inhibited through 10 hours) was 0.12 ± 0.003 µM. It also gave a concentration at 1 h ([1]; 1 mg/kg, Plasma Compound 2 Concentration (μM) Mean ± SEM, 1 mg/kg single oral dose, 1 h) of 0.53 ± 0.02 µM, a concentration at 3 h ([1]; 1 mg/kg, Plasma Compound 2 Concentration (μM) Mean ± SEM, 1 mg/kg single oral dose, 3 h) of 0.34 ± 0.01 µM and a concentration at 6 h ([1]; 1 mg/kg, Plasma Compound 2 Concentration (μM) Mean ± SEM, 1 mg/kg single oral dose, 6 h) of 0.13 ± 0.01 µM. For the same compound, the concentration at 10 h ([1]; 1 mg/kg, Plasma Compound 2 Concentration (μM) Mean ± SEM, 1 mg/kg single oral dose, 10 h) was 0.12 µM, the concentration at 24 h ([1]; 1 mg/kg, Plasma Compound 2 Concentration (μM) Mean ± SEM, 1 mg/kg single oral dose, 24 h) was 0.005 µM and the concentration at 1 h ([1]; 2 mg/kg, 2 mg/kg QD, 1 h after last dose, read-out: Plasma Concentration (μM) Mean ± SEM) was 1.02 ± 0.2 µM. For the same compound, the concentration at 3 h ([1]; 2 mg/kg, 2 mg/kg QD, 3 h after last dose, read-out: Plasma Concentration (μM) Mean ± SEM) was 0.59 ± 0.08 µM, the concentration at 6 h ([1]; 2 mg/kg, 2 mg/kg QD, 6 h after last dose, read-out: Plasma Concentration (μM) Mean ± SEM) was 0.27 ± 0.08 µM and the concentration at 10 h ([1]; 2 mg/kg, 2 mg/kg QD, 10 h after last dose, read-out: Plasma Concentration (μM) Mean ± SEM) was 0.21 µM. It also gave a concentration at 24 h ([1]; 2 mg/kg, 2 mg/kg QD, 24 h after last dose, read-out: Plasma Concentration (μM) Mean ± SEM) of 0.02 ± 0.01 µM, a concentration at 24 h ([1]; 5 mg/kg, Compound 2 in the plasma, efficacy study, 5 mg/kg QD, 24 hours after the last dose) of 0.13 µM and a concentration at 1 h ([1]; 10 mg/kg, Plasma Compound 2 Concentration (μM) Mean ± SEM, 10 mg/kg single oral dose, 1 h) of 6.78 ± 1.16 µM. It also gave a concentration at 3 h ([1]; 10 mg/kg, Plasma Compound 2 Concentration (μM) Mean ± SEM, 10 mg/kg single oral dose, 3 h) of 5.69 ± 0.96 µM, a concentration at 6 h ([1]; 10 mg/kg, Plasma Compound 2 Concentration (μM) Mean ± SEM, 10 mg/kg single oral dose, 6 h) of 2.1 ± 0.22 µM and a concentration at 10 h ([1]; 10 mg/kg, Plasma Compound 2 Concentration (μM) Mean ± SEM, 10 mg/kg single oral dose, 10 h) of 1.18 ± 0.2 µM. The concentration at 24 h ([1]; 10 mg/kg, Plasma Compound 2 Concentration (μM) Mean ± SEM, 10 mg/kg single oral dose, 24 h) was 0.8 ± 0.09 µM, the AUC(0-t) ([1]; 0.5 mg/kg, 0.5 mg/kg BID, after last dose, read-out: total plasma AUC0-10 h) was 1.42 µM·h and the AUC(0-t) ([1]; 1 mg/kg, 1 mg/kg BID, after last dose, read-out: total plasma AUC0-10 h) was 3.27 µM·h. For the same compound, the AUC(0-t) ([1]; 1 mg/kg, 1 mg/kg QD (BID/QD study), read-out: total plasma AUC0-24 h) was 2.95 µM·h, the AUC(0-t) ([1]; 1 mg/kg, 1 mg/kg QD, last day, read-out: total plasma AUC0-24 h) was 2.33 µM·h and the AUC(0-t) ([1]; 2 mg/kg, 2 mg/kg QD, last day, read-out: total plasma AUC0-24 h) was 5.93 µM·h. The AUC(0-t) ([1]; 5 mg/kg, 5 mg/kg QD, last day, read-out: total plasma AUC0-24 h) was 17 µM·h, the inhibition at 0.1 mg/kg (pS6RP; [2]) was 45.7% and the inhibition at 0.1 mg/kg (pS6RP; [3]) was 38.2%. The inhibition at 0.1 mg/kg (pS6RP; [4]) was 27.2%, the inhibition at 0.1 mg/kg (pS6RP; [5]) was 23.3% and the inhibition at 0.1 mg/kg (pS6RP; [6]) was 17.6%. For the same compound, the inhibition at 0.1 mg/kg (pS6RP; [7]) was 0%, the inhibition at 0.3 mg/kg (pS6RP; [2]) was 69.8% and the inhibition at 0.3 mg/kg (pS6RP; [3]) was 79.6%. It also gave an inhibition at 0.3 mg/kg (pS6RP; [4]) of 73.5%, an inhibition at 0.3 mg/kg (pS6RP; [5]) of 67.3% and an inhibition at 0.3 mg/kg (pS6RP; [6]) of 57.9%. For the same compound, the inhibition at 0.3 mg/kg (pS6RP; [7]) was 33.3%, the inhibition at 1 mg/kg (pS6RP; 1 mg/kg single dose, through 10 hours, read-out: inhibition of pS6RP in tumor) was about 80% and the inhibition at 1 mg/kg (pS6RP; 1 mg/kg single oral dose, 1 h, read-out: PD Marker Inhibition (%) pS6RP) was 84.6%. It also gave an inhibition at 1 mg/kg (pS6RP; 1 mg/kg single oral dose, 3 h, read-out: PD Marker Inhibition (%) pS6RP) of 89.5%, an inhibition at 1 mg/kg (pS6RP; 1 mg/kg single oral dose, 6 h, read-out: PD Marker Inhibition (%) pS6RP) of 82.8% and an inhibition at 1 mg/kg (pS6RP; 1 mg/kg single oral dose, 10 h, read-out: PD Marker Inhibition (%) pS6RP) of 78.7%. The inhibition at 1 mg/kg (pS6RP; 1 mg/kg single oral dose, 24 h, read-out: PD Marker Inhibition (%) pS6RP) was 0%, the inhibition at 10 mg/kg (pS6RP; 10 mg/kg single dose, through 24 hours, read-out: inhibition of both PD markers (pS6RP, pAKT (S473))) was at least 80% and the inhibition at 10 mg/kg (pS6RP; 10 mg/kg single oral dose, 1 h, read-out: PD Marker Inhibition (%) pS6RP) was 85.3%. It also gave an inhibition at 10 mg/kg (pS6RP; 10 mg/kg single oral dose, 3 h, read-out: PD Marker Inhibition (%) pS6RP) of 91.3%, an inhibition at 10 mg/kg (pS6RP; 10 mg/kg single oral dose, 6 h, read-out: PD Marker Inhibition (%) pS6RP) of 93.5% and an inhibition at 10 mg/kg (pS6RP; 10 mg/kg single oral dose, 10 h, read-out: PD Marker Inhibition (%) pS6RP) of 93.7%. For the same compound, the inhibition at 10 mg/kg (pS6RP; 10 mg/kg single oral dose, 24 h, read-out: PD Marker Inhibition (%) pS6RP) was 93.2%.
